Format in all cases: cell-based
One assay has as its target T1, RARγ (Homo sapiens, UniProt P13631).
T1 construct: expressed in transfected cells; host or cells: CV-1 (monkey kidney)
T1 sequence (P13631 1-454): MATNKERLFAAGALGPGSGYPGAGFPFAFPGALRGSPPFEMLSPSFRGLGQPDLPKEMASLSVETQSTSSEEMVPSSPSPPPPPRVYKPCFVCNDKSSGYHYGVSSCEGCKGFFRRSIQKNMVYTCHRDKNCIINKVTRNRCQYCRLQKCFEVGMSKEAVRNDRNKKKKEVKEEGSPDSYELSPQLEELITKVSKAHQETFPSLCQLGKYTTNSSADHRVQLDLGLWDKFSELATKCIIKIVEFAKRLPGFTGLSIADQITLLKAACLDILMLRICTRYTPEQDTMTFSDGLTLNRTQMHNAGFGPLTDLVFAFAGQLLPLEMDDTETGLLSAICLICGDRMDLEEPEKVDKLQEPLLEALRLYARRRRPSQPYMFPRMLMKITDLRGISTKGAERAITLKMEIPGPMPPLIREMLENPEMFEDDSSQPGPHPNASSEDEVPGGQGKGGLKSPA
Kind of assay: co-transfection (cis-trans) assay in CV-1 cells, RARγ. Conditions: for Emax: CV-1, maximal response relative to all-trans-retinoic acid at 10^-5 M, read-out: Efficacy RARγ; for EC50: CV-1 cells, luciferase reporter, concentration giving 50% of maximal observed response, read-out: Potency (nM) RARγ. An excerpt: (§1) The co-transfection assay provides a mechanism to evaluate the ability of a compound to modulate the transcription response initiated by an intracellular receptor. […] Berger et al., J. Steroid Biochem. Molec.
(§2) Briefly, the co-transfection assay involves the introduction of two plasmids by transient transfection into a retinoid receptor-negative mammalian cell background. The first plasmid contains a retinoid receptor cDNA and directs constitutive expression of the encoded receptor. The second plasmid contains a cDNA that encodes for a readily quantifiable protein, e.g., firefly luciferase or chloramphenicol acetyl transferase (CAT), under control of a promoter containing a retinoid acid response element, which confers retinoid dependence on the transcription of the reporter. In this co-transfection assay, all retinoid receptors respond to all-trans-retinoic acid in a similar fashion. This assay can be used to accurately measure efficacy and potency of retinoic acid and synthetic retinoids as ligands that interact with the individual retinoid receptor subtypes.
(§3) Accordingly, synthetic retinoid compounds of the current invention were evaluated for their interaction with retinoid receptor subtypes using the co-transfection assay in which CV-1 cells were co-transfected with one of the retinoid receptor subtypes, a reporter construct, and an internal control to allow normalization of the response for transfection efficiency. The following example is illustrative.
(§4) Retinoids: All-trans-retinoic acid (RA) and 13-cis-retinoic acid (13-cis-RA) were obtained from Sigma. […] Retinoids were dissolved in dimethylsulfoxide for use in the transcriptional activation assays.
(§5) Co-transfection Assay In CV-1 Cells: A monkey kidney cell line, CV-1, was used in the cis-trans assay. Cells were transfected with two plasmids. […] The cis-vector contains an easily assayable gene product, in this case the firefly luciferase, coupled to a retinoid-responsive promoter, i.e., an RARE or RXRE. Addition of retinoic acid or an appropriate synthetic retinoid results in the formation of a retinoid-RAR or -RXR complex that activates the expression of luciferase gene, causing light to be emitted from cell extracts. The level of luciferase activity is directly proportional to the effectiveness of the retinoid-receptor complex in activating gene expression. This sensitive and reproducible co-transfection approach permits the identification of retinoids that interact with the different receptor isoforms.
(§6) Cells were cultured in DMEM supplemented with 10% charcoal resin-stripped fetal bovine serum, and experiments were conducted in 96-well plates. […] Cells were transfected for 6 h and then washed to remove the precipitate. The cells were then incubated for 36 h with or without retinoid. […]
(A reporter such as luciferase makes a cellular process visible.)

A further assay concerns the target T2, RARβ (Homo sapiens, UniProt P10826).
T2 construct: expressed in transfected cells; host or cells: CV-1 (monkey kidney)
T2 sequence (P10826 1-448 isoform P10826-2): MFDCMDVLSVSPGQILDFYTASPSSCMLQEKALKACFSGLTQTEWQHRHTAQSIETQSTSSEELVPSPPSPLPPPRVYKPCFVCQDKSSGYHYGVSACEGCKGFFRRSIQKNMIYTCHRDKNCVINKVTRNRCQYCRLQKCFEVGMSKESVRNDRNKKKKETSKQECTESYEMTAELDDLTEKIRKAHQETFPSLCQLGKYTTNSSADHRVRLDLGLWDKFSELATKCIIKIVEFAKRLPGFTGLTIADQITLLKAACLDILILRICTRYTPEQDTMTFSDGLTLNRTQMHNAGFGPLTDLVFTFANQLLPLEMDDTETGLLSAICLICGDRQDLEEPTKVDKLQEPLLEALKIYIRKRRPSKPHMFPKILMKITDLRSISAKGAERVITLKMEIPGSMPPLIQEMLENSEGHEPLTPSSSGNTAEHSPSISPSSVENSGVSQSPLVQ
Kind of assay: co-transfection (cis-trans) assay in CV-1 cells, RARβ. Conditions: for Emax: CV-1, maximal response relative to all-trans-retinoic acid at 10^-5 M, read-out: Efficacy RARβ; for EC50: CV-1 cells, luciferase reporter, concentration giving 50% of maximal observed response, read-out: Potency (nM) RARβ.
Excerpt: as §1, §2, §3, §4, §5, §6

For a further assay, the target named is T3, RXRγ (Mus musculus, UniProt P28705).
T3 construct: expressed in transfected cells; host or cells: CV-1 (monkey kidney)
T3 sequence (P28705 1-463): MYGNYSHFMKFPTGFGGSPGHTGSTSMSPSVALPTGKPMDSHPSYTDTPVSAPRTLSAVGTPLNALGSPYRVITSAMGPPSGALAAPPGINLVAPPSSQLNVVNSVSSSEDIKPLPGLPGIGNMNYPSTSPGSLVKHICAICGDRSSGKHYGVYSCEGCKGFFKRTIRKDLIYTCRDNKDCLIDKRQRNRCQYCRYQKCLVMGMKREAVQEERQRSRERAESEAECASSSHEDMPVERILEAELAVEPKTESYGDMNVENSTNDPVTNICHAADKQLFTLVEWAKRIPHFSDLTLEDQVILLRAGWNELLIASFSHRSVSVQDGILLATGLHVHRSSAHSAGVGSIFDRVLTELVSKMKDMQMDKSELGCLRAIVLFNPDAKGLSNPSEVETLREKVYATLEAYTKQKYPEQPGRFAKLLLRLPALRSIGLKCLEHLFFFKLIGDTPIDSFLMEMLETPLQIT
Kind of assay: co-transfection (cis-trans) assay in CV-1 cells, RXRγ. The settings on record: for Emax at 10 µM: CV-1, maximal response relative to all-trans-retinoic acid at 10^-5 M, read-out: Efficacy RXRγ; for EC50: CV-1 cells, luciferase reporter, concentration giving 50% of maximal observed response, read-out: Potency (nM) RXRγ.
Excerpt: as §1, §2, §3, §4, §5, §6

Each structure is given as a SMILES string.

On to `C=C(c1ccc(C(=O)O)cc1)c1ccc(C(C)(C)C)cc1C` [Compound 133, 4-[1-(2-methyl-4-t-butylphenyl)ethenyl]benzoic acid], for which, on RARγ, the Emax is under 2% and the EC50 is over 10000 nM. In addition, at RARβ, the Emax is under 2% and the EC50 was over 10000 nM. On RXRγ, the Emax at 10 µM is 91% and the EC50 is 290 nM.

On to `Cc1cc(C(C)(C)C)ccc1C(=NO)c1ccc(C(=O)O)cc1` [Compound 137, 4-[(2-methyl-4-t-butylphenyl)carbonyl]benzoic acid oxime], for which, at RARγ, the Emax is under 2% and the EC50 is over 10000 nM. Moreover, at RARβ, the Emax was under 2% and the EC50 is over 10000 nM. Also, at RXRγ, the Emax at 10 µM came to 50% and the EC50 was 190 nM.
